How the values were obtained:
[1] = biological target: T1, hSTING R232 c-terminal domain (Homo sapiens, UniProt Q86WV6, H232R); assay: Thermal shift assay for measuring the relative binding affinity to hSTING R232 c-terminal domain; settings: purified hSTING R232 (aa154-342), SYPRO Orange, Tm minus mean Tm of negative control
T1 construct: Purified hSTING R232 (aa154-342)
Method: Thermal shift assay for measuring the relative binding affinity to hSTING R232 c-terminal domain.
From each of the 10 mM stock solutions of compounds in DMSO, dilutions are made to create samples with three concentrations 10 mM, 5 mM, and 2.5 mM. From these dilutions a final 50-fold dilution is made into assay buffer, giving concentrations of 200 μM, 100 μM, and 50 μM. From each of the buffer dilutions, 5 μL is added to the 384 well assay plate. A positive control is setup with cGAMP using the same dilution scheme as the ligands. A baseline thermal shift for the negative control is determined using buffer and 2% DMSO.
An aliquot of protein is thawed on ice and SYPRO orange reagent is brought to room temperature. The 5000×SYPRO orange stock is diluted in assay buffer to a concentration of 10×. Protein is diluted to a concentration of 10 μM in the prepared buffer/dye solution. Five micro-liters of protein/buffer/dye solution is added to each of the sample and control wells, and the plate is sealed with the provided films. The plate is centrifuged for 5 min at 20° C. at 1000 rpm.
On the Light Cycler instrument, measurements are made over a temperature gradient from 20° C. to 99° C. at 0.07° C./s and data acquisitions collected at a rate of 8/° C. are used to measure the change in fluorescence as a function of temperature. Data analysis is performed using the Roche Light Cycler Software to determine the melting temperature (Tm ° C.) of each sample. A mean Tm ° C. for the negative control is calculated and subtracted from each of the samples to generate the ΔTm ° C. values for each of the ligands.
The relative binding affinity to hSTING c-terminal domain of the compounds of the present invention was determined by the above assay, and ΔTm ° C. values are shown in the following Table 3.

[2] = biological target: T2, STING in THP1-Dual KI-hSTING-R232 cells (Homo sapiens, UniProt Q86WV6, H232R); assay: Human THP1 reporter cell assay (IRF luciferase reporter); assay type: cell-based; settings: 24 hours incubation
T2 construct: host or cells: THP1-Dual KI-hSTING-R232 cells
T2 sequence (Q86WV6 whole entry H232R): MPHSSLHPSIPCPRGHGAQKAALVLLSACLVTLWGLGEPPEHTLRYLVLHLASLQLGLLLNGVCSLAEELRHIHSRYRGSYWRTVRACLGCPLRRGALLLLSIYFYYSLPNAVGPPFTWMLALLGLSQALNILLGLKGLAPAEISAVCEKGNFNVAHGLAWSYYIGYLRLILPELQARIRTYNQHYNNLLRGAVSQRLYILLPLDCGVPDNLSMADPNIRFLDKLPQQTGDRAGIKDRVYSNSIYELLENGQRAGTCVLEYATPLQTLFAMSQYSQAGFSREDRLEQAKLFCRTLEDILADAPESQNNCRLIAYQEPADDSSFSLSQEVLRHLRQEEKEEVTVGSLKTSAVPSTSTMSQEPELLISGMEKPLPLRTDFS
Method: Test Example 2. Human THP1 Reporter Cell Assay
1. Human THP1-Dual KI-hSTING-R232 Cells (InvivoGen, Cat. #thpd-r232)
Activation of STING in THP1-Dual KI-hSTING-R232 cells was determined by measuring the luminescence signal resulting from the expression of the IRF luciferase reporter gene. All reagent preparation and assay procedures were conducted according to the protocols provided by InvivoGen. In brief, test compounds and cells (1×10^5 cells per well) were dispensed into 96-well plates with a final volume per well of 150 μl. Plates were incubated in a humidified, 5% CO2 incubator at 37° C. for 24 hours. The expression level of the reporter gene was measured by transferring 20 μl of the supernatant to a non-transparent 96-well plate to which 50 μl of QUANTI-LUC was dispensed into each well. The resulting luminescence signal was immediately read using a TECAN plate reader. The background luminescence signal from media was subtracted. The fold induction effect of the luminescence signal at each compound concentration was determined relative to controls that lack compound treatment. The plot of fold induction effect versus the log of compound concentration was fit in GraphPad Prism with a 4-parameter concentration response equation to calculate EC50 and Emax.
Activation of STING in THP1 of the compounds in the present invention was determined by the above assay, and EC50 values are shown in the following Table 4.

[3] = tested on: Human PBMC cells; assay: IFNβ secretion from human PBMC (ELISA); assay type: cell-based; settings: 5 hours incubation, IFNβ in supernatant by ELISA
Method: Test Example 3. IFNβ Secretion from Human PBMC
1. Human PBMC cells (STEMCELL Technologies)
Cryopreserved peripheral blood human mononuclear cells (PBMCs) were rapidly thawed and resuspended in Lymphocyte Media and centrifuged at 500×g for 5 minutes. The supernatant was removed and the cell pellets were gently resuspended in cell culture and compound dilution media. Then the cells were plated in a 96-well format at a concentration of 1.5×10^5 per well. The test compounds, at varying concentrations, or vehicle control (<0.3% DMSO) were mixed with the cells giving a final volume of 150 μl per well. The plates were incubated in a humidified, 5% CO2 incubator at 37° C. for 5 hours. After incubation, the human IFNβ in the supernatant and the IFNβ standard controls were measured using human IFNβ Quantikine ELISA kit according to the manufacturer's protocol. The absorbance at 450 nm was measured with Infinite M1000 plate reader and corrected by background reading at 540 nm of each well. The concentration of IFNβ secreted was calculated based on the standard curves. The plot of IFNβ concentration versus the log of compound concentration was fit in GraphPad Prism with a 4-parameter concentration response equation to calculate EC50 and Emax (see Table 5).

T1 sequence (Q86WV6 154-342 H232R): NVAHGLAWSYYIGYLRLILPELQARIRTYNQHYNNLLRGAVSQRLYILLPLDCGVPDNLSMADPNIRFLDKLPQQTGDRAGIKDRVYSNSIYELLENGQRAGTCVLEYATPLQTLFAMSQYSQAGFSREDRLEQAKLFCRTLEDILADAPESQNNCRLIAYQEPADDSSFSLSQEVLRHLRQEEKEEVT

| SMILES | ΔTm at 100 µM [1] | EC50 [2] | EC50 [3] |
| --- | --- | --- | --- |
| CCn1nc(C)cc1C(=O)Nc1nc2cc(C(N)=O)cc3c2n1[C@@H](C/C=C/C[C@H]1COc2cc(C(N)=O)cc4nc(NC(=O)c5cc(C)nn5CC)n1c24)CO3 [Example 1, (3S,3″S)-3,3″-((E)-but-2-ene-1,4-diyl)bis(2-(1-ethyl-3-methyl-1H-pyrazole-5-carboxamido)-3,4-dihydro-5-oxa-1,2a-diazaacenaphthylene-7-carboxamide)] | 14.6 °C | 200 nM | 0.22 µM |
| CCn1nc(C)cc1C(=O)Nc1nc2cc(C(=O)O)cc3c2n1[C@@H](C/C=C/C[C@H]1COc2cc(C(=O)O)cc4nc(NC(=O)c5cc(C)nn5CC)n1c24)CO3 [Example 3, (3S,3″S)-3,3″-((E)-but-2-ene-1,4-diyl)bis(2-(1-ethyl-3-methyl-1H-pyrazole-5-carboxamido)-3,4-dihydro-5-oxa-1,2a-diazaacenaphthylene-7-carboxylic acid)] | 5.9 °C | – | – |
| CCn1nc(C)cc1C(=O)Nc1nc2cc(C(N)=O)cc3c2n1[C@@H](CCCC[C@H]1COc2cc(C(N)=O)cc4nc(NC(=O)c5cc(C)nn5CC)n1c24)CO3 [Example 5, (3S,3″S)-3,3″-(butane-1,4-diyl)bis(2-(1-ethyl-3-methyl-1H-pyrazole-5-carboxamido)-3,4-dihydro-5-oxa-1,2a-diazaacenaphthylene-7-carboxamide)] | 9.1 °C | 430 nM | – |
| CCn1nc(C)cc1C(=O)Nc1nc2cc(C(N)=O)cc3c2n1[C@@H](C/C=C/C[C@H]1CN(CCCOC)c2cc(C(N)=O)cc4nc(NC(=O)c5cc(C)nn5CC)n1c24)CN3C [Example 13, (S)-4-((E)-4-((S)-8-carbamoyl-2-(1-ethyl-3-methyl-1H-pyrazole-5-carboxamido)-6-(3-methoxypropyl)-5,6-dihydro-4H-imidazo[1,5,4-de]quinoxalin-4-yl)but-2-en-1-yl)-2-(1-ethyl-3-methyl-1H-pyrazole-5-carboxamido)-6-methyl-5,6-dihydro-4H-imidazo[1,5,4-de]quinoxaline-8-carboxamide] | – | 180 nM | – |
| CCn1nc(C)cc1C(=O)Nc1nc2cc(C(N)=O)cc3c2n1[C@@H](C/C=C/C[C@H]1COc2cc(C(N)=O)cc4nc(NC(=O)C(C)(C)C)n1c24)CO3 [Example 4, (S)-3-((E)-4-((S)-7-carbamoyl-2-(1-ethyl-3-methyl-1H-pyrazole-5-carboxamido)-3,4-dihydro-5-oxa-1,2a-diazaacenaphthylen-3-yl)but-2-en-1-yl)-2-pivalamido-3,4-dihydro-5-oxa-1,2a-diazaacenaphthylene-7-carboxamide] | 7.5 °C | 11500 nM | – |
| CCn1nc(C)cc1C(=O)Nc1nc2cc(C(N)=O)cc3c2n1C(CC=CC[C@H]1COc2cc(C(N)=O)cc4nc(NC(=O)c5cc(C)nn5CC)n1c24)CCCO3 (stereo partly drawn) [Example 8, 10-(4-((S)-7-carbamoyl-2-(1-ethyl-3-methyl-1H-pyrazole-5-carboxamido)-3,4-dihydro-5-oxa-1,2a-diazaacenaphthylen-3-yl)but-2-en-1-yl)-1-(1-ethyl-3-methyl-1H-pyrazole-5-carboxamido)-7,8,9,10-tetrahydro-6-oxa-2,10a-diazacycloocta[cd]indene-4-carboxamide] | – | 6400 nM | – |
| CCn1nc(C)cc1C(=O)Nc1nc2cc(C(N)=O)cc3c2n1C(CC=CCC1CCCOc2cc(C(N)=O)cc4nc(NC(=O)c5cc(C)nn5CC)n1c24)CCCO3 (centres unmarked) [Example 7, 10,10″-(but-2-ene-1,4-diyl)bis(1-(1-ethyl-3-methyl-1H-pyrazole-5-carboxamido)-7,8,9,10-tetrahydro-6-oxa-2,10a-diazacycloocta[cd]indene-4-carboxamide)] | 6.2 °C | – | – |
| CCn1nc(C)cc1C(=O)Nc1nc2cc(C(N)=O)cc3c2n1[C@@H](C/C=C/C[C@H]1CN(CCCOC)c2cc(C(N)=O)cc4nc(NC(=O)c5cc(C)nn5CC)n1c24)CN3CCCOC [Example 11, (4S,4′S)-4,4′-((E)-but-2-ene-1,4-diyl)bis(2-(1-ethyl-3-methyl-1H-pyrazole-5-carboxamido)-6-(3-methoxypropyl)-5,6-dihydro-4H-imidazo[1,5,4-de]quinoxaline-8-carboxamide)] | – | 150 nM | 0.19 µM |

Further lines, with some results ahead:

| ΔTm at 100 µM [1] | EC50 [2] | SMILES | EC50 [3] |
| --- | --- | --- | --- |
| – | 54 nM | CCn1nc(C)cc1C(=O)Nc1nc2cc(C(N)=O)cc3c2n1[C@@H](C/C=C/C[C@H]1CN(C)c2cc(C(N)=O)cc4nc(NC(=O)c5cc(C)nn5CC)n1c24)CN3C [Example 9, (4S,4′S)-4,4′-((E)-but-2-ene-1,4-diyl)bis(2-(1-ethyl-3-methyl-1H-pyrazole-5-carboxamido)-6-methyl-5,6-dihydro-4H-imidazo[1,5,4-de]quinoxaline-8-carboxamide)] | 0.14 µM |
| – | 140 nM | CCn1nc(C)cc1C(=O)Nc1nc2cc(C(N)=O)cc3c2n1[C@@H](C/C=C\C[C@H]1CN(CCCOC)c2cc(C(N)=O)cc4nc(NC(=O)c5cc(C)nn5CC)n1c24)CN3CCCOC [Example 12, (4S,4′S)-4,4′-((Z)-but-2-ene-1,4-diyl)bis(2-(1-ethyl-3-methyl-1H-pyrazole-5-carboxamido)-6-(3-methoxypropyl)-5,6-dihydro-4H-imidazo[1,5,4-de]quinoxaline-8-carboxamide)] | 0.058 µM |
| – | 12 nM | CCn1nc(C)cc1C(=O)Nc1nc2cc(C(N)=O)cc3c2n1[C@@H](C/C=C\C[C@H]1CN(C)c2cc(C(N)=O)cc4nc(NC(=O)c5cc(C)nn5CC)n1c24)CN3C [Example 10, (4S,4′S)-4,4′-((Z)-but-2-ene-1,4-diyl)bis(2-(1-ethyl-3-methyl-1H-pyrazole-5-carboxamido)-6-methyl-5,6-dihydro-4H-imidazo[1,5,4-de]quinoxaline-8-carboxamide)] | 0.05 µM |
| – | 60 nM | CCn1nc(C)cc1C(=O)Nc1nc2cc(C(N)=O)cc3c2n1[C@@H](C/C=C\C[C@H]1CN(CCCOC)c2cc(C(N)=O)cc4nc(NC(=O)c5cc(C)nn5CC)n1c24)CN3C [Example 14, (S)-4-((Z)-4-((S)-8-carbamoyl-2-(1-ethyl-3-methyl-1H-pyrazole-5-carboxamido)-6-(3-methoxypropyl)-5,6-dihydro-4H-imidazo[1,5,4-de]quinoxalin-4-yl)but-2-en-1-yl)-2-(1-ethyl-3-methyl-1H-pyrazole-5-carboxamido)-6-methyl-5,6-dihydro-4H-imidazo[1,5,4-de]quinoxaline-8-carboxamide] | – |
| 12.2 °C | 6 nM | CCn1nc(C)cc1C(=O)Nc1nc2cc(C(N)=O)cc3c2n1[C@@H](C/C=C\C[C@H]1COc2cc(C(N)=O)cc4nc(NC(=O)c5cc(C)nn5CC)n1c24)CO3 [Example 2, (3S,3″S)-3,3″-((Z)-but-2-ene-1,4-diyl)bis(2-(1-ethyl-3-methyl-1H-pyrazole-5-carboxamido)-3,4-dihydro-5-oxa-1,2a-diazaacenaphthylene-7-carboxamide)] | 0.026 µM |

— patent US20220056044A1, “TRICYCLIC COMPOUNDS AS STING AGONISTS, AND PREPARATION METHODS AND MEDICINAL USES THEREOF” (Jiangsu Hengrui Medicine Co., Ltd., priority 2018, published 2022)
